What is called Ki is a measure of affinity in units of concentration, obtained from inhibition or displacement.

Bounds are passed on as bounds.

Our source for the Ki values is patent US20040024024A1, “Aromatic sulfone hydroxamates and their use as protease inhibitors” (priority 2001, published 2004).

One experiment deals with T1, Human recombinant MMP-2 (Homo sapiens, UniProt P08253).
T1 construct: made in house; host or cells: MMP-2-transfected p2AHT2 cells
T1 sequence (P08253 110-660): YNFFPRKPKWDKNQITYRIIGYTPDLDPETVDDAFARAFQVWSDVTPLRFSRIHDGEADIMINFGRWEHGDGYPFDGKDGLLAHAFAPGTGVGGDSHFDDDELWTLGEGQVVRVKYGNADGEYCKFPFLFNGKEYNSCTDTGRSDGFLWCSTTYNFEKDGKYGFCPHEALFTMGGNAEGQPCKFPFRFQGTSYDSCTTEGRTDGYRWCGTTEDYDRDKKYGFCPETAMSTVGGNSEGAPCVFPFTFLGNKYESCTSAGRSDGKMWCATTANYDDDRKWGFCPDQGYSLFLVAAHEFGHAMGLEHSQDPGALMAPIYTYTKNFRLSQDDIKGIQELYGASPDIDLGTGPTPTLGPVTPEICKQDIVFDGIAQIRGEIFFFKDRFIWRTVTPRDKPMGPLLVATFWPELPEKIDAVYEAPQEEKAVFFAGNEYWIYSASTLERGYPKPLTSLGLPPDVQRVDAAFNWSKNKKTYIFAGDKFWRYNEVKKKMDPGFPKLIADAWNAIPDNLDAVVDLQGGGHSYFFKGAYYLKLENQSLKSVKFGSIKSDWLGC
Put plainly: In vitro MMP inhibition, Ki determination (fluorogenic substrate II). The note with it: value in parentheses. The format is biochemical.

For a further experiment, the target named is T2, Human recombinant MMP-14 (Homo sapiens, UniProt P50281).
T2 construct: The catalytic domain enzyme was expressed in E. coli inclusion bodies, solubilized in urea; made in house
The description is as above. It is filed as biochemical. The note with it: value in parentheses. In outline: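 Refolded E. coli-expressed MMP-14 catalytic domain, APMA- or trypsin-activated, incubated 1 h at room temperature with 4 μM fluorogenic substrate II in pH 7.5 Tris/NaCl/CaCl2 buffer; fluorescence read at 330/420 nm. Ki from Morrison-equation non-linear regression, substrate at or below Km, uncorrected for substrate.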

As for `O=C(NO)C1(S(=O)(=O)c2ccc(OCCc3ccc(-c4cccc(O)c4)cc3)cc2)CCOCC1` [Example 532], the Ki on Human recombinant MMP-2 was 739 nM; at Human recombinant MMP-14 it was more than 10 µM.
The like results for `CCCCc1ccc(CCCOc2ccc(S(=O)(=O)C3(C(=O)NO)CCOCC3)cc2)cn1` [Example 533] were, in that order, 29.3 nM and 6.68 µM.
The like results for `CCCc1ccc(CCCOc2ccc(S(=O)(=O)C3(C(=O)NO)CCOCC3)cc2)cn1` [Example 534] were, in that order, 25.4 nM and 6.81 µM.
As to `CCc1ccc(CCCOc2ccc(S(=O)(=O)C3(C(=O)NO)CCOCC3)cc2)cn1` [Example 535], the Ki on Human recombinant MMP-2 is 23.2 nM; on Human recombinant MMP-14, 3.87 µM.
The like results for `CN1CCC(C(=O)NO)(S(=O)(=O)c2ccc(SCCNC(=O)c3cc4ccccc4o3)cc2)CC1` [Example 536] were, in that order, 744 nM and more than 10 µM.
The like results for `COCCN1CCC(C(=O)NO)(S(=O)(=O)c2ccc(OCCc3cccc(-c4ccncc4)c3)cc2)CC1` [Example 538] were, in that order, 24.6 nM and 1.7 µM.
In the case of `COCCN1CCC(C(=O)NO)(S(=O)(=O)c2ccc(OCCc3cccc(-c4cccnc4)c3)cc2)CC1` [Example 539], the Ki came to 38.6 nM at Human recombinant MMP-2 and 1.18 µM on Human recombinant MMP-14.
As for `COCCN1CCC(C(=O)NO)(S(=O)(=O)c2ccc(OCCc3cccc(-c4ccccc4F)c3)cc2)CC1` [Example 540], the Ki was 270 nM at Human recombinant MMP-2 and more than 10 µM at Human recombinant MMP-14.
Regarding `O=C(NCCSc1ccc(S(=O)(=O)C2(C(=O)NO)CCN(C3CC3)CC2)cc1)c1nc2ccccc2s1` [Example 541], the Ki at Human recombinant MMP-2 is 302 nM; at Human recombinant MMP-14, more than 10 µM.
The like results for `O=C(NCCSc1ccc(S(=O)(=O)C2(C(=O)NO)CCN(C3CC3)CC2)cc1)c1cc2ccccc2o1` [Example 542] were, in that order, 234 nM and more than 10 µM.
Regarding `COCCN1CCC(C(=O)NO)(S(=O)(=O)c2ccc(OCCc3ccc(-c4ccc(C#N)cc4)cc3)cc2)CC1` [Example 543], the Ki on Human recombinant MMP-2 turned out to be 124 nM; on Human recombinant MMP-14 it was 3.09 µM.
The like results for `COCCN1CCC(C(=O)NO)(S(=O)(=O)c2ccc(OCCc3cccc(-c4ccc(F)cc4)c3)cc2)CC1` [Example 544] were, in that order, 302 nM and more than 10 µM.
The like results for `COCCN1CCC(C(=O)NO)(S(=O)(=O)c2ccc(OCCc3cccc(-c4cccc(F)c4)c3)cc2)CC1` [Example 545] were, in that order, 310 nM and more than 10 µM.
For `COCCN1CCC(C(=O)NO)(S(=O)(=O)c2ccc(OCCc3cccc(-c4ccc(F)cc4F)c3)cc2)CC1` [Example 546], the results for the Ki on Human recombinant MMP-2 and at Human recombinant MMP-14 were 426 nM and more than 10 µM, respectively.
Regarding `COCCN1CCC(C(=O)NO)(S(=O)(=O)c2ccc(OCCc3cccc(-c4ccc(Cl)cc4)c3)cc2)CC1` [Example 547], the Ki is 727 nM on Human recombinant MMP-2 and more than 10 µM on Human recombinant MMP-14.
Turning to `COCCN1CCC(C(=O)NO)(S(=O)(=O)c2ccc(OCCc3cccc(-c4ccccn4)c3)cc2)CC1` [Example 548], the Ki is 1.58 nM at Human recombinant MMP-2 and 7.42 µM on Human recombinant MMP-14.
The like results for `COCCN1CCC(C(=O)NO)(S(=O)(=O)c2ccc(OCCc3cccc(-c4ccc(F)c(F)c4)c3)cc2)CC1` [Example 549] were, in that order, 504 nM and more than 10 µM.
With `CCCc1ccc(COc2ccc(S(=O)(=O)C3(C(=O)NO)CCOCC3)cc2)cn1` [Example 550], the inhibition constant (Ki) at Human recombinant MMP-2 came to 5.49 nM; at Human recombinant MMP-14, 2.18 µM.
The like results for `CCCCc1ccc(COc2ccc(S(=O)(=O)C3(C(=O)NO)CCOCC3)cc2)cn1` [Example 551] were, in that order, 5.07 nM and 2.06 µM.
Regarding `CCc1ccc(COc2ccc(S(=O)(=O)C3(C(=O)NO)CCOCC3)cc2)cn1` [Example 552], the figures for the Ki on Human recombinant MMP-2 and at Human recombinant MMP-14 were 4.94 nM and 2.44 µM, respectively.
For `COCCN1CCC(C(=O)NO)(S(=O)(=O)c2ccc(OCCNC(=O)c3cc4ccccc4o3)cc2)CC1` [Example 553], the Ki at Human recombinant MMP-2 was found to be 7.8 nM; on Human recombinant MMP-14, 2.26 µM.
Turning to `O=C(NO)C1(S(=O)(=O)c2ccc(OCCOc3cncnc3)cc2)CCOCC1` [Example 554], the inhibition constant Ki on Human recombinant MMP-2 is 61.3 nM; at Human recombinant MMP-14 it was more than 10 µM.
The like results for `O=C(NO)C1(S(=O)(=O)c2ccc(OCCCOCc3ccncc3)cc2)CCOCC1` [Example 555] were, in that order, 3.38 nM and 0.689 µM.
Take `O=C(NO)C1(S(=O)(=O)c2ccc(OCCc3ccccn3)cc2)CCOCC1` [Example 556]: the Ki at Human recombinant MMP-2 turned out to be 68.1 nM; on Human recombinant MMP-14, 3.5 µM.
The like results for `O=C(NO)C1(S(=O)(=O)c2ccc(OCCc3cccnc3)cc2)CCOCC1` [Example 557] were, in that order, 6.46 nM and 0.0522 µM.
As for `O=C(NO)C1(S(=O)(=O)c2ccc(OCCCOc3cncnc3)cc2)CCOCC1` [Example 559], the results for the Ki at Human recombinant MMP-2 and at Human recombinant MMP-14 were 11.7 nM and 0.845 µM, respectively.
The like results for `O=C(NO)C1(S(=O)(=O)c2ccc(OCCCOc3cccnc3)cc2)CCOCC1` [Example 560] were, in that order, 10.3 nM and 0.549 µM.
The like results for `O=C(NCCOc1ccc(S(=O)(=O)C2(C(=O)NO)CCOCC2)cc1)c1c[nH]c2ccccc12` [Example 562] were, in that order, 241 nM and 9.27 µM.
With `O=C(NCCSc1ccc(S(=O)(=O)C2(C(=O)NO)CCOCC2)cc1)c1nc2ccccc2s1` [Example 598], the Ki at Human recombinant MMP-2 is 599 nM; at Human recombinant MMP-14, more than 10 µM.
`C#Cc1ccc(-c2cccc(CCCOc3ccc(S(=O)(=O)C4(C(=O)NO)CCN(CCOC)CC4)cc3)c2)cc1` [Example 646]: the inhibition constant Ki came to 289 nM on Human recombinant MMP-2 and 4.3 µM at Human recombinant MMP-14.
